“And” between values parts separate entries of the source, which are not always exact repeats. Equal values may be shown once.

The series has as its system rhesus monkeys with spontaneous chronic kidney disease. Briefly: Effect on serum K+, 8-week administration. Conditions: 5mg/kg (n = 6). How it is done:
In the trial, animals were brought in three stages. In the first stage, there were two groups: 3 animals (No. 257, No. 4721, No. 287) in a group with 5 mg/kg of the malate of compound of formula I, and 2 animals (No. 1029, No. 4713) in the placebo group. […] In the third stage, there were two groups: 5 animals (No. 4829, No. 6501, No. 287, No. 4721, No. 2091) in a group with 2 mg/kg of the malate of compound of formula I, and 5 animals (No. 1567, No. 4861, No. 5453, No. 6653, No. 5073) in a group with 1 mg/kg of the malate of compound of formula I.
Serum potassium, twice before administration, once every 2 weeks during the administration period;
Blood biochemical and urine index detection equipment: Roche cobas6000 analyzer series C501 module detection. ELISA kit was used for NT-proBNP test.

In the case of `COC(=O)NCCCn1nc(C(C)N(C(=O)C2CNCCO2)C2CC2)c2ccc(C)nc21.O=C(O)CC(O)C(=O)O` (stereo not drawn) [malate of compound of Formula 1], the “K^+” value was 4.98 ± 0.73 mmol/L (2 weeks, Mean ± SD); 4.91 mmol/L and 4.55 mmol/L and 6.07 mmol/L and 5.37 mmol/L and 5.05 mmol/L and 3.93 mmol/L (2 weeks, individual animals); 4.49 ± 0.62 mmol/L (4 weeks, Mean ± SD); 4.33 mmol/L and 4.55 mmol/L and 5.46 mmol/L and 4.50 mmol/L and 4.61 mmol/L and 3.51 mmol/L (4 weeks, individual animals); 4.57 ± 0.66 mmol/L (6 weeks, Mean ± SD); 4.53 mmol/L and 4.16 mmol/L and 4.77 mmol/L and 4.76 mmol/L and 5.58 mmol/L and 3.60 mmol/L (6 weeks, individual animals). In addition, the “K^+” value is 4.49 ± 0.70 mmol/L (8 weeks, Mean ± SD); 4.26 mmol/L and 4.64 mmol/L and 4.49 mmol/L and 5.28 mmol/L and 5.00 mmol/L and 3.26 mmol/L (8 weeks, individual animals); 4.89 ± 0.35 mmol/L (Baseline 1, Mean ± SD); 4.78 mmol/L and 4.54 mmol/L and 4.93 mmol/L and 5.41 mmol/L and 5.16 mmol/L and 4.52 mmol/L (Baseline 1, individual animals); 4.81 ± 0.48 mmol/L (Baseline 2, Mean ± SD); 5.43 mmol/L and 4.74 mmol/L and 4.03 mmol/L and 5.20 mmol/L and 4.75 mmol/L and 4.72 mmol/L (Baseline 2, individual animals).
